Reference: PMC9325671, “Targeting LIPA independent of its lipase activity is a therapeutic strategy in solid tumors via induction of endoplasmic reticulum stress” (Nature Cancer, 2022)

Molecular target: T1, lysosomal acid lipase (LAL, LIPA) (Homo sapiens, UniProt P38571)
T1 construct: endogenous LAL in SUM-159 cells (CETSA); WT-LIPA reconstituted in LIPA KO cells (pulldown)
T1 sequence (P38571 77-399): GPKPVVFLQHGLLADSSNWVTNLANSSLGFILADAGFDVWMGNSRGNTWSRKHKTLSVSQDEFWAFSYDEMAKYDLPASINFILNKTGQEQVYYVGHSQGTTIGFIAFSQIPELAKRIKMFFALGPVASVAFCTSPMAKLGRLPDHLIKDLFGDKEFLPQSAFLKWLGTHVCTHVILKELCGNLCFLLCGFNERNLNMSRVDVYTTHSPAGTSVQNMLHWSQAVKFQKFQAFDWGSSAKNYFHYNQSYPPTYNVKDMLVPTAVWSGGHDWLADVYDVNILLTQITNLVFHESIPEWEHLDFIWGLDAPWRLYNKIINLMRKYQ
Assay: cellular thermal shift assay ([…] ERX-41) in SUM-159 cells; pulldown from lysates with biotinylated ERX-41
Type: cell-based

CC(C)COc1cc(C(=O)Nc2ccc(C(=O)N[C@H]3CC[C@H](C)CC3)cc2OCC(C)C)ccc1NC(=O)c1ccc([N+](=O)[O-])c(OCCO)c1 [ERX-41]
cellular thermal shift assay (10 uM ERX-41) in SUM-159 cells; pulldown from lysa: ERX-41 was able to stabilize LAL within the cell and shifted thermal sensitivity, suggesting that ERX-41 binds to LAL
